Results as given in patent publication US12396461B2, “Functional peptides having antimicrobial activity against phytopathogenic microorganisms” (TOYOTA JIDOSHA KABUSHIKI KAISHA, priority 2019, dated 2025).
Several values for one entry are separate records, joined by “and”; a condition that tells them apart may be missing. Equal entries are not always repeated. Entries after “also recorded” stand apart in the source; their conditions may differ. Where two headings read alike, the source gives them in different places. Where no end group is shown, it is not given here.

Columns and labels:
Botrytis cinerea [1] = format: cell-based; parameters: key to Plate antimicrobial activity test Botrytis cinerea, level: a case where hyphae extended to the entire well and no antimicrobial activity was found is defined as “level 0,”; a case where hyphae extended to less than a half of the well and thus the peptide inhibited the growth of the hyphae is defined as “level 1,”; a case where ungerminated spores were present and the peptide partially inhibited the germination is defined as “level 2,”; a case where all spores were ungerminated and the peptide completely inhibited the germination is defined as “level 3.”; conditions: for Plate antimicrobial activity test Botrytis cinerea, level: 25° C. for 1 day or 2 days, microscopic observation
[2] = test system: Colletotrichum destructivum; format: cell-based; parameters: key to Plate antimicrobial activity test Colletotrichum destructivum, level: a case where hyphae extended to the entire well and no antimicrobial activity was found is defined as “level 0,”; a case where hyphae extended to less than a half of the well and thus the peptide inhibited the growth of the hyphae is defined as “level 1,”; a case where ungerminated spores were present and the peptide partially inhibited the germination is defined as “level 2,”; a case where all spores were ungerminated and the peptide completely inhibited the germination is defined as “level 3.”; conditions: for Plate antimicrobial activity test Colletotrichum destructivum, level: 25° C. for 1 day or 2 days, microscopic observation
[3] = test system: Colletotrichum orbiculare; format: cell-based; parameters: key to Plate antimicrobial activity test Colletotrichum orbiculare, level: a case where hyphae extended to the entire well and no antimicrobial activity was found is defined as “level 0,”; a case where hyphae extended to less than a half of the well and thus the peptide inhibited the growth of the hyphae is defined as “level 1,”; a case where ungerminated spores were present and the peptide partially inhibited the germination is defined as “level 2,”; a case where all spores were ungerminated and the peptide completely inhibited the germination is defined as “level 3.”; conditions: for Plate antimicrobial activity test Colletotrichum orbiculare, level: 25° C. for 1 day or 2 days, microscopic observation
Fusarium oxysporum = format: cell-based; parameters: key to Plate antimicrobial activity test Fusarium oxysporum, level: a case where hyphae extended to the entire well and no antimicrobial activity was found is defined as “level 0,”; a case where hyphae extended to less than a half of the well and thus the peptide inhibited the growth of the hyphae is defined as “level 1,”; a case where ungerminated spores were present and the peptide partially inhibited the germination is defined as “level 2,”; a case where all spores were ungerminated and the peptide completely inhibited the germination is defined as “level 3.”
Pyricularia oryzae = format: cell-based; parameters: key to Plate antimicrobial activity test Pyricularia oryzae, level: a case where hyphae extended to the entire well and no antimicrobial activity was found is defined as “level 0,”; a case where hyphae extended to less than a half of the well and thus the peptide inhibited the growth of the hyphae is defined as “level 1,”; a case where ungerminated spores were present and the peptide partially inhibited the germination is defined as “level 2,”; a case where all spores were ungerminated and the peptide completely inhibited the germination is defined as “level 3.”; conditions: for Plate antimicrobial activity test Pyricularia oryzae, level: 25° C. for 1 day or 2 days, microscopic observation
Botrytis cinerea [4] = experiment: Botrytis cinerea leaf inoculation test (tomato leaf); format: in vivo; conditions: peptide 100 μM; tomato leaf, 25° C. for 2 days, lesions by visual inspection; symbols ◯/Δ/X not defined
Method: In the present example, a suspension comprising Botrytis cinerea and a peptide to be tested was dropped on a plant leaf, and lesions were then observed by visual inspection to evaluate the antimicrobial activity of the tested peptide. First, the pores of Botrytis cinerea were suspended in a potato dextrose broth (PDB) to result in a spore concentration of 5×10^5 spores/ml, so as to prepare a PDB suspension spore solution. Subsequently, a peptide to be tested (TsORF6-1) was added to the PDB suspension spore solution, so that the final concentration of the peptide to be tested became 0 μM, 1 μM, 10 μM or 100 μM. Thereafter, 10 μl each of the PDB suspension spore solution containing the peptide to be tested was dropped on the front side and the back side of the leaf of tomato (variety name: “Momotaro Fight”). In this condition, incubation was carried out at 25° C. for 2 days. Thereafter, the front and back sides of the leaf were observed by visual inspection.

[5] = test system: Colletotrichum destructivum; experiment: Colletotrichum destructivum leaf inoculation test (Chinese cabbage leaf); format: in vivo; conditions: 25° C. for 4 days; for lesion of Colletotrichum destructivum on Chinese cabbage leaf, result in words: FIG. 3; for Leaf inoculation test Chinese cabbage/Colletotrichum destructivum: lesions by visual inspection, symbols ◯/Δ/X not defined
Ralstonia solanacearum = conditions: 100 μM
[6] = test system: Erwinia carotovora subsp. carotovora; conditions: 100 μM
[7] = test system: Xanthomonas oryzae pv. oryzae
[8] = test system: Pseudomonas syringae pv. tomato
[9] = (FIG. 1, Table 3), concentration not given

## MKVMIVVKTKVKNKKVAKMMVK [TsORF6-1]
Botrytis cinerea [1]; [9]
  germination of Botrytis cinerea, result in words: completely inhibited in terms of germination; also recorded: could inhibit germination
Botrytis cinerea [1]; peptide 1 μM
  Plate antimicrobial activity test Botrytis cinerea, level: 0
Botrytis cinerea [1]; peptide 10 μM
  Plate antimicrobial activity test Botrytis cinerea, level: 0
Botrytis cinerea [1]; peptide 100 μM
  Plate antimicrobial activity test Botrytis cinerea, level: 3
[2]; [9]
  germination of Colletotrichum destructivum, result in words: completely inhibited in terms of germination; also recorded: could inhibit germination
[2]; peptide 1 μM
  Plate antimicrobial activity test Colletotrichum destructivum, level: 0
[2]; peptide 10 μM
  Plate antimicrobial activity test Colletotrichum destructivum, level: 0
[2]; peptide 100 μM
  Plate antimicrobial activity test Colletotrichum destructivum, level: 3
[3]; [9]
  germination of Colletotrichum orbiculare, result in words: completely inhibited in terms of germination; also recorded: could inhibit germination
[3]; peptide 1 μM
  Plate antimicrobial activity test Colletotrichum orbiculare, level: 0
[3]; peptide 10 μM
  Plate antimicrobial activity test Colletotrichum orbiculare, level: 0
[3]; peptide 100 μM
  Plate antimicrobial activity test Colletotrichum orbiculare, level: 2
Fusarium oxysporum
  Plate antimicrobial activity test Fusarium oxysporum, level: 2 and 0
  germination of Fusarium oxysporum, result in words: completely inhibited in terms of germination; also recorded: could inhibit germination
Pyricularia oryzae; [9]
  germination of Pyricularia oryzae, result in words: completely inhibited in terms of germination; also recorded: could inhibit germination
Pyricularia oryzae; peptide 1 μM
  Plate antimicrobial activity test Pyricularia oryzae, level: 0
Pyricularia oryzae; peptide 10 μM
  Plate antimicrobial activity test Pyricularia oryzae, level: 0
Pyricularia oryzae; peptide 100 μM
  Plate antimicrobial activity test Pyricularia oryzae, level: 2
Botrytis cinerea [4]
  Leaf inoculation test Tomato/Botrytis cinerea: ◯
[5]; water suspension of spores containing 10 μl peptide
  lesion of Colletotrichum destructivum on Chinese cabbage leaf, result in words: a lesion of Colletotrichum destructivum was not observed
[5]; water suspension of spores containing 100 μl peptide
  lesion of Colletotrichum destructivum on Chinese cabbage leaf, result in words: a lesion of Colletotrichum destructivum was not observed
[5]; peptide 10 μM
  Leaf inoculation test Chinese cabbage/Colletotrichum destructivum: ◯
[5]; peptide 100 μM
  Leaf inoculation test Chinese cabbage/Colletotrichum destructivum: ◯
Ralstonia solanacearum; calculated from OD600 versus water added
  Inhibitory rate Ralstonia solanacearum: −5.2%
Ralstonia solanacearum; cultured at 28° C. a whole day and night
  OD600 Ralstonia solanacearum: 2.7
[6]
  Inhibitory rate Erwinia carotovora subsp. carotovora: −14.9%
  OD600 Erwinia carotovora subsp. carotovora: 2.2
[7]; 100 μM, calculated from OD600 versus water added
  Inhibitory rate Xanthomonas oryzae pv. oryzae: 47.6%
[7]; 100 μM, cultured at 28° C. a whole day and night
  OD600 Xanthomonas oryzae pv. oryzae: 1.1
[7]; Table 4
  growth of Xanthomonas oryzae pv. oryzae, result in words: could inhibit the growth
[8]
  growth of Pseudomonas syringae pv. tomato, result in words: could inhibit the growth
[8]; 100 μM
  Inhibitory rate Pseudomonas syringae pv. tomato: 90.6%
  OD600 Pseudomonas syringae pv. tomato: 0.2
